The results in this text go back to patent US20240400555A1 (Initial Therapeutics, Inc., priority 2023, published 2024).

A value given as a limit tells only on which side of the number the result lay.

For the first assay, the system named is MV-4-11 cells. The assay can be described thus: Cell Viability Assay in MV-4-11 Cells. Format: cell-based. The note with it: Homo sapiens, MV4-11, 72 h. As to the method: MV-4-11 cells (ATCC) were seeded into sterile 96-well flat clear bottom white polystyrene TC-treated microplates (Corning) at 7,000 cells/well in 150 μL complete growth medium (Iscove's Modified Dulbecco's Medium (IMDM) (Gibco), 10% Heat Inactivated Fetal Bovine Serum (HyClone), 1% Penicillin-Streptomycin-L-Glutamine (HyClone), 1% GlutaMAX (Gibco)). […] After 72 h incubation, plates were removed from incubators and allowed to equilibrate to room temperature (˜10 min) before adding 50 μL per well Cell-Titer Glo reagent (Promega) using a WellJet (Integra Biosciences) dispenser. Plates were then incubated at room temperature for 2-20 min prior to measurement of luminescence on an Envision (Perkin Elmer) plate reader. Data were normalized to DMSO (100% viability) and analyzed using a non-linear four-parameter curve fit.
Regarding `Cc1csc(-c2ccc(C(=O)N(c3nccc4cccc(C)c34)[C@@H]3CCCNC3)c(F)c2)n1` [Example 315, (R)-2-fluoro-N-(8-methylisoquinolin-1-yl)-4-(4-methylthiazol-2-yl)-N-(piperidin-3-yl)benzamide], the IC50 – broadly, the concentration that inhibits the measured activity by half – amounted to 240 nM. Take `NC(=O)/C=C/c1cccc2ccnc(N(C(=O)c3ccc(-n4nnc5cccnc54)cc3F)[C@@H]3CCCNC3)c12` [Example 320, N-[8-[(E)-3-amino-3-oxo-prop-1-enyl]-1-isoquinolyl]-2-fluoro-N-[(3R)-3-piperidyl]-4-(triazolo[4.5-b]pyridin-3-yl)benzamide]: the IC50 stood at 5.6 nM. The same measure, in the same setting: in the case of `Cc1n[nH]c(-c2ccc(C(=O)N(c3nccc4cccc(C)c34)[C@@H]3CCCNC3)c(F)c2)n1` [Example 324, (R)-2-fluoro-4-(3-methyl-1H-1,2,4-triazol-5-yl)-N-(8-methylisoquinolin-1-yl)-N-(piperidin-3-yl) benzamide] it was 1500 nM; in that of `Cc1cccc2ccnc(N(C(=O)c3ccc(C#N)c(-c4ccc(-c5ccccc5)cc4)c3)[C@@H]3CCCNC3)c12` [Example 327, 4-cyano-N-(8-methyl-1-isoquinolyl)-3-(4-phenylphenyl)-N-[(3R)-3-piperidyl]benzamide], 2700 nM.

Staying with this assay, now noted: Homo sapiens, MV4-11, 72 h, MV-4-11 cells, 72 h, Cell-Titer Glo; read-out: IC50.
With `Cc1nnc(-c2ccc(C(=O)N(c3nccc4cc(-c5nccs5)cc(C)c34)[C@@H]3CCCNC3)c(F)c2)s1` (racemic) [Example 733, 2-fluoro-4-(5-methyl-1,3,4-thiadiazol-2-yl)-N-(8-methyl-6-thiazol-2-yl-1-isoquinolyl)-N-[rac-(3R)-3-piperidyl] benzamide], the IC50 was 46 nM. The same measure, in the same setting: the result for `Cn1cc(-c2ccc(C(=O)N(c3nccc4cccc(C=CCO)c34)[C@@H]3CCCNC3)cc2)nn1` (stereo in doubt) [Example 338, (R,Z)—N-(8-(3-hydroxyprop-1-en-1-yl)isoquinolin-1-yl)-4-(1-methyl-1H-1,2,3-triazol-4-yl)-N-(piperidin-3-yl)benzamide] reads more than 10000 nM. The same measure, in the same setting: in the case of `O=C(c1ccc(-c2cnn3cccnc23)cc1)N(c1nccc2ccccc12)[C@@H]1CCCNC1` [Example 302, (R)—N-(isoquinolin-1-yl)-N-(piperidin-3-yl)-4-(pyrazolo[1,5-a]pyrimidin-3-yl)benzamide] it was 480 nM; in that of `Cn1ccc2ccnc(N(C(=O)c3ccc(-c4cnn5cccnc45)cc3)[C@@H]3CCCNC3)c21` [Example 303, (R)—N-(1-methyl-1H-pyrrolo[2,3-c]pyridin-7-yl)-N-(piperidin-3-yl)-4-(pyrazolo[1,5-a]pyrimidin-3-yl)benzamide], 450 nM. Turning to `CN(C)C/C=C/C(=O)Nc1cccc(C2CCN(C(=O)N(c3nccc4ccn(C)c34)[C@@H]3CCCNC3)CC2)c1` [Example 304, (R,E)-4-(3-(4-(dimethylamino)but-2-enamido)phenyl)-N-(1-methyl-1H-pyrrolo[2,3-c]pyridin-7-yl)-N-(piperidin-3-yl)piperidine-1-carboxamide], the IC50 worked out at 37 nM. Consider `O=C(c1ccc(-n2nnc3cccnc32)cc1)N(c1ncccc1Cl)[C@@H]1CCCNC1` [Example 305, (R)-4-(3H-[1,2,3]triazolo[4,5-b]pyridin-3-yl)-N-(3-chloropyridin-2-yl)-N-(piperidin-3-yl)benzamide], for which the IC50 came out at 1600 nM. The same measure, in the same setting: the result for `Cc1cc(-n2nnc3cccnc32)ccc1C(=O)N(c1nccc2cccc(C)c12)[C@@H]1CCCNC1` [Example 306, (R)-4-(3H-[1,2,3]triazolo[4,5-b]pyridin-3-yl)-2-methyl-N-(8-methylisoquinolin-1-yl)-N-(piperidin-3-yl)benzamide] reads 58 nM.

Turning to `CCc1cc(-n2nnc3cccnc32)ccc1C(=O)N(c1nccc2cccc(C)c12)[C@@H]1CCCNC1` [Example 307, (R)-4-(3H-[1,2,3]triazolo[4,5-b]pyridin-3-yl)-2-ethyl-N-(8-methylisoquinolin-1-yl)-N-(piperidin-3-yl)benzamide], the IC50 worked out at 100 nM. Turning to `COc1cc(-n2nnc3cccnc32)ccc1C(=O)N(c1nccc2cccc(C)c12)[C@@H]1CCCNC1` [Example 308, (R)-4-(3H-[1,2,3]triazolo[4,5-b]pyridin-3-yl)-2-methoxy-N-(8-methylisoquinolin-1-yl)-N-(piperidin-3-yl)benzamide], the IC50 was 25 nM.

`Cc1cccc2ccnc(N(C(=O)c3ccc(Nc4ncccn4)cc3)[C@@H]3CCCNC3)c12` [Example 309, (R)—N-(8-methylisoquinolin-1-yl)-N-(piperidin-3-yl)-4-(pyrimidin-2-ylamino)benzamide]: the IC50 turned out to be 280 nM.

With `Cc1cccc2ccnc(N(C(=O)c3ccc(-n4nnc5cccnc54)cc3Cl)[C@@H]3CCCNC3)c12` [Example 310, (R)-4-(3H-[1,2,3]triazolo[4,5-b]pyridin-3-yl)-2-chloro-N-(8-methylisoquinolin-1-yl)-N-(piperidin-3-yl) benzamide], the IC50 amounted to 28 nM. Still for that read-out and setting: in the case of `Cc1cccc2ccnc(N(C(=O)c3ccc(N4CCOCC4)cc3F)[C@@H]3CCCNC3)c12` [Example 311, (R)-2-fluoro-N-(8-methylisoquinolin-1-yl)-4-morpholino-N-(piperidin-3-yl)benzamide] it was 23 nM; in that of `Cc1cccc2ccnc(N(C(=O)c3ccc(-n4nnc5cccnc54)cc3C(F)(F)F)[C@@H]3CCCNC3)c12` [Example 312, (R)-4-(3H-[1,2,3]triazolo[4,5-b]pyridin-3-yl)-N-(8-methylisoquinolin-1-yl)-N-(piperidin-3-yl)-2-(trifluoromethyl)benzamide], 2600 nM; in that of `O=C(c1ccc(-n2nnc3cccnc32)cc1F)N(c1nccc2ccccc12)[C@@H]1CCCNC1` [Example 313, (R)-4-(3H-[1,2,3]triazolo[4,5-b]pyridin-3-yl)-2-fluoro-N-(isoquinolin-1-yl)-N-(piperidin-3-yl)benzamide], 230 nM.

Turning to `Cc1cccc2ccnc(N(C(=O)c3ccc(-c4cncs4)cc3F)[C@@H]3CCCNC3)c12` [Example 314, (R)-2-fluoro-N-(8-methylisoquinolin-1-yl)-N-(piperidin-3-yl)-4-(thiazol-5-yl) benzamide], the IC50 was 50 nM.

Take `Cc1cc(-c2ccc(C(=O)N(c3nccc4cccc(C)c34)[C@@H]3CCCNC3)c(F)c2)on1` [Example 316, (R)-2-fluoro-N-(8-methylisoquinolin-1-yl)-4-(3-methylisoxazol-5-yl)-N-(piperidin-3-yl) benzamide]: the IC50 stood at 82 nM. The same measure, in the same setting: the result for `Cn1ccc2ccnc(N(C(=O)c3ccc(-n4nnc5cccnc54)cc3F)[C@@H]3CCCNC3)c21` [Example 317, (R)-4-(3H-[1,2,3]triazolo[4,5-b]pyridin-3-yl)-2-fluoro-N-(1-methyl-1H-pyrrolo[2,3-c]pyridin-7-yl)-N-(piperidin-3-yl)benzamide] reads 79 nM.

With `Cc1cccc2ccnc(N(C(=O)c3ccc(-c4cncc(C(N)=O)n4)cc3F)[C@@H]3CCCNC3)c12` [Example 318, (R)-6-(3-fluoro-4-((8-methylisoquinolin-1-yl)(piperidin-3-yl)carbamoyl)phenyl) pyrazine-2-carboxamide], the half-inhibitory concentration (IC50) is 220 nM.

As to `Cc1ccnc(Nc2ccc(C(=O)N(c3nccc4cccc(C)c34)[C@@H]3CCCNC3)c(F)c2)n1` [Example 319, (R)-2-fluoro-N-(8-methylisoquinolin-1-yl)-4-((4-methylpyrimidin-2-yl)amino)-N-(piperidin-3-yl)benzamide], the IC50 is 66 nM. The same measure, in the same setting: in the case of `Cc1cccc2ccnc(N(C(=O)c3ccc(Nc4nccc(CO)n4)cc3F)[C@@H]3CCCNC3)c12` [Example 321, (R)-2-fluoro-4-((4-(hydroxymethyl)pyrimidin-2-yl)amino)-N-(8-methylisoquinolin-1-yl)-N-(piperidin-3-yl)benzamide] it was 780 nM; in that of `Cc1cccc2ccnc(N(C(=O)c3ccc(Nc4ncc(CO)cn4)cc3F)[C@@H]3CCCNC3)c12` [Example 322, (R)-2-fluoro-4-((5-(hydroxymethyl)pyrimidin-2-yl)amino)-N-(8-methylisoquinolin-1-yl)-N-(piperidin-3-yl)benzamide], 180 nM.

`Cc1cc(-c2ccc(C(=O)N(c3nccc4cccc(C)c34)[C@@H]3CCCNC3)c(F)c2)[nH]n1` [Example 323, (R)-2-fluoro-4-(3-methyl-1H-pyrazol-5-yl)-N-(8-methylisoquinolin-1-yl)-N-(piperidin-3-yl) benzamide]: the IC50 came out at 440 nM.

As for `O=C(c1ccc(-n2nnc3cccnc32)cc1F)N(c1nccc2cccnc12)[C@@H]1CCCNC1` [Example 325, (R)-4-(3H-[1,2,3]triazolo[4,5-b]pyridin-3-yl)-2-fluoro-N-(1,7-naphthyridin-8-yl)-N-(piperidin-3-yl)benzamide], the IC50 was found to be 1500 nM. Still for that read-out and setting: the result for `Cc1cccc2ccnc(N(C(=O)c3ccc(-c4cnn(C)c4)c(-c4cnn(C)c4)c3)[C@@H]3CCCNC3)c12` [Example 326, (R)-3,4-bis(1-methyl-1H-pyrazol-4-yl)-N-(8-methylisoquinolin-1-yl)-N-(piperidin-3-yl) benzamide] reads 67 nM; that for `Cc1cccc2ccnc(N(C(=O)c3ccc(C#N)c(-c4ccc(-c5cccnc5)cc4)c3)[C@@H]3CCCNC3)c12` [Example 328, 4-cyano-N-(8-methyl-1-isoquinolyl)-N-[(3R)-3-piperidyl]-3-[4-(3-pyridyl)phenyl]benzamide], 210 nM; that for `Cc1cccc2ccnc(N(C(=O)c3ccc(C#N)c(-c4cccc(-c5cn[nH]c5)c4)c3)[C@@H]3CCCNC3)c12` [Example 329, (R)-6-cyano-N-(8-methylisoquinolin-1-yl)-N-(piperidin-3-yl)-3′-(1H-pyrazol-4-yl)-[1,1′-biphenyl]-3-carboxamide], 72 nM.
